Results published in the NIST ThermoML archive (doi:10.1021/acs.jced.7b01030).
Several values for one entry are separate records, joined by “and”; a condition that tells them apart may be missing. Equal entries are not always repeated.

Settings: Liquid; for self diffusion coefficient: NMR spin-echo technique; for viscosity: Falling or rolling sphere viscometry; for mass density: Vibrating tube method

OCC(F)(F)F [2,2,2-trifluoroethanol]
Settings	mass density	self diffusion coefficient [m2/s]	viscosity
253.24 K, 100 kPa	–	1.33e-10	–
258.45 K, 100 kPa	–	1.68e-10	–
258.49 K, 100 kPa	–	1.68e-10	–
263.15 K, 100 kPa	–	–	5.502 mPa·s and 5.485 mPa·s
263.15 K, 9900 kPa	–	–	6.125 mPa·s
263.15 K, 10000 kPa	–	–	6.134 mPa·s
263.15 K, 24500 kPa	–	–	7.159 mPa·s
263.15 K, 24600 kPa	–	–	7.168 mPa·s
263.15 K, 50500 kPa	–	–	9.212 mPa·s
263.15 K, 50600 kPa	–	–	9.203 mPa·s
263.15 K, 75500 kPa	–	–	11.52 mPa·s and 11.51 mPa·s
263.15 K, 100200 kPa	–	–	14.28 mPa·s
263.15 K, 101000 kPa	–	–	14.38 mPa·s
263.15 K, 131600 kPa	–	–	18.4 mPa·s
263.15 K, 132200 kPa	–	–	18.53 mPa·s
263.37 K, 100 kPa	–	2.05e-10	–
263.39 K, 100 kPa	–	2.06e-10	–
268.15 K, 100 kPa	–	–	4.517 mPa·s and 4.513 mPa·s
272.82 K, 79000 kPa	–	1.66e-10	–
272.84 K, 25700 kPa	–	2.48e-10	–
272.86 K, 100 kPa	–	3.06e-10	–
272.87 K, 100 kPa	–	3.06e-10	–
272.9 K, 200500 kPa	–	7.6e-11	–
272.91 K, 299000 kPa	–	4.23e-11	–
272.93 K, 249000 kPa	–	5.7e-11	–
272.99 K, 150000 kPa	–	1.04e-10	–
273.09 K, 98000 kPa	–	1.46e-10	–
273.15 K, 100 kPa	1424.26 kg/m3	–	3.798 mPa·s [middle of 5 runs]
273.15 K, 10400 kPa	–	–	4.226 mPa·s
273.15 K, 10500 kPa	–	–	4.224 mPa·s
273.15 K, 25500 kPa	–	–	4.909 mPa·s and 4.905 mPa·s
273.15 K, 50500 kPa	–	–	6.179 mPa·s and 6.166 mPa·s
273.15 K, 75000 kPa	–	–	7.57 mPa·s
273.15 K, 75500 kPa	–	–	7.582 mPa·s
273.15 K, 99800 kPa	–	–	9.373 mPa·s
273.15 K, 100300 kPa	–	–	9.375 mPa·s
273.15 K, 125600 kPa	–	–	11.37 mPa·s and 11.45 mPa·s
273.15 K, 125700 kPa	–	–	11.39 mPa·s
273.15 K, 150300 kPa	–	–	13.73 mPa·s
273.15 K, 150700 kPa	–	–	13.79 mPa·s
273.15 K, 176200 kPa	–	–	16.53 mPa·s
273.15 K, 176400 kPa	–	–	16.61 mPa·s
273.15 K, 201100 kPa	–	–	19.6 mPa·s and 19.51 mPa·s
273.15 K, 233500 kPa	–	–	24.25 mPa·s
273.15 K, 233700 kPa	–	–	24.29 mPa·s
273.25 K, 100 kPa	–	3.07e-10	–
273.25 K, 50000 kPa	–	2.04e-10	–
273.8 K, 100 kPa	–	3.3e-10	–
278.15 K, 100 kPa	1416.08 kg/m3	–	3.311 mPa·s and 3.305 mPa·s
278.59 K, 100 kPa	–	3.94e-10	–
278.63 K, 100 kPa	–	3.87e-10	–
283.15 K, 100 kPa	1407.84 kg/m3 and 1407.85 kg/m3	–	2.746 mPa·s and 2.749 mPa·s
288.15 K, 100 kPa	1399.56 kg/m3	–	2.363 mPa·s and 2.368 mPa·s
288.53 K, 100 kPa	–	5.41e-10	–
288.56 K, 100 kPa	–	5.3e-10	–
293.15 K, 100 kPa	1391.18 kg/m3 and 1391.19 kg/m3	–	2.077 mPa·s [middle of 4 runs]
298.15 K, 100 kPa	1382.73 kg/m3 and 1382.71 kg/m3	–	1.781 mPa·s [middle of 7 runs]
298.15 K, 10200 kPa	–	–	1.98 mPa·s and 1.981 mPa·s
298.15 K, 25400 kPa	–	–	2.267 mPa·s and 2.264 mPa·s
298.15 K, 49900 kPa	–	–	2.755 mPa·s
298.15 K, 50200 kPa	–	–	2.773 mPa·s
298.15 K, 74900 kPa	–	–	3.317 mPa·s
298.15 K, 75100 kPa	–	–	3.314 mPa·s
298.15 K, 100400 kPa	–	–	3.929 mPa·s
298.15 K, 100600 kPa	–	–	3.938 mPa·s
298.15 K, 125200 kPa	–	–	4.612 mPa·s
298.15 K, 125400 kPa	–	–	4.61 mPa·s
298.15 K, 150100 kPa	–	–	5.347 mPa·s
298.15 K, 175000 kPa	–	–	6.198 mPa·s
298.15 K, 175200 kPa	–	–	6.197 mPa·s
298.15 K, 197500 kPa	–	–	6.965 mPa·s
298.15 K, 197800 kPa	–	–	6.993 mPa·s
298.15 K, 200700 kPa	–	–	7.21 mPa·s
298.15 K, 201700 kPa	–	–	7.297 mPa·s
298.15 K, 224400 kPa	–	–	8.254 mPa·s
298.15 K, 226100 kPa	–	–	8.33 mPa·s
298.15 K, 256900 kPa	–	–	9.931 mPa·s
298.15 K, 258400 kPa	–	–	10.03 mPa·s
298.15 K, 276700 kPa	–	–	10.98 mPa·s
298.15 K, 277800 kPa	–	–	11.04 mPa·s
298.15 K, 300600 kPa	–	–	12.3 mPa·s
298.15 K, 301600 kPa	–	–	12.43 mPa·s
298.15 K, 325400 kPa	–	–	13.99 mPa·s
298.15 K, 326500 kPa	–	–	14.06 mPa·s
298.15 K, 348800 kPa	–	–	15.77 mPa·s
298.15 K, 351100 kPa	–	–	15.95 mPa·s
298.26 K, 100 kPa	–	6.91e-10	–
298.32 K, 100 kPa	–	6.96e-10	–
298.34 K, 100 kPa	–	7.21e-10	–
298.35 K, 100 kPa	–	7.06e-10	–
298.36 K, 100 kPa	–	6.95e-10	–
298.55 K, 100 kPa	–	6.99e-10	–
299.89 K, 25000 kPa	–	6.08e-10	–
299.91 K, 50000 kPa	–	5.11e-10	–
299.91 K, 72500 kPa	–	4.38e-10	–
299.92 K, 100 kPa	–	7.35e-10	–
299.92 K, 300000 kPa	–	1.32e-10	–
299.93 K, 98000 kPa	–	3.77e-10	–
299.93 K, 199000 kPa	–	2.14e-10	–
299.94 K, 149000 kPa	–	2.87e-10	–
299.94 K, 350000 kPa	–	1.09e-10	–
299.98 K, 250000 kPa	–	1.72e-10	–
300.4 K, 100 kPa	–	7.52e-10	–
303.15 K, 100 kPa	–	–	1.574 mPa·s and 1.565 mPa·s
